Measured values reported in PubChem BioAssay (NCI).
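1) Cells in 96-well plates. 2) Compound, 48 h, 5 concentrations. 3) Linear interpolation between surrounding doses. 4) Unreached endpoint = highest concentration. Here, GI50 denotes the concentration required for 50% inhibition of growth. TGI denotes the concentration required for complete inhibition of growth.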

Columns and labels:
Experiment in all cases: DTP human tumour cell line panel, 48 h
RXF 393 renal = test system: RXF 393 renal
SNB-19 CNS = test system: SNB-19 CNS
HOP-92 NSCLC = test system: HOP-92 NSCLC
U251 CNS = test system: U251 CNS
NCI-H226 lung = test system: NCI-H226 lung
HT29 colon = test system: HT29 colon
KM12 colon = test system: KM12 colon
HS 578T breast = test system: HS 578T breast
CAKI-1 renal = test system: CAKI-1 renal
EKVX NSCLC = test system: EKVX NSCLC
SF-295 CNS = test system: SF-295 CNS
SK-OV-3 ovarian = test system: SK-OV-3 ovarian
HCT-116 colon = test system: HCT-116 colon
A549 NSCLC = test system: A549 NSCLC
HCT-15 colon = test system: HCT-15 colon
LOX IMVI melanoma = test system: LOX IMVI melanoma
NCI-H23 lung = test system: NCI-H23 lung
SF-268 CNS = test system: SF-268 CNS
UACC-257 melanoma = test system: UACC-257 melanoma
MCF7 breast = test system: MCF7 breast
UACC-62 melanoma = test system: UACC-62 melanoma
NCI-H460 lung = test system: NCI-H460 lung
PC-3 prostate = test system: PC-3 prostate
MOLT-4 leukemia = test system: MOLT-4 leukemia
CCRF-CEM leukemia = test system: CCRF-CEM leukemia
T-47D breast = test system: T-47D breast
RPMI-8226 leukemia = test system: RPMI-8226 leukemia
SK-MEL-2 melanoma = test system: SK-MEL-2 melanoma
SR leukemia = test system: SR leukemia
OVCAR-4 ovarian = test system: OVCAR-4 ovarian
MDA-MB-231 breast = test system: MDA-MB-231 breast
786-0 renal = test system: 786-0 renal
OVCAR-5 ovarian = test system: OVCAR-5 ovarian
OVCAR-3 ovarian = test system: OVCAR-3 ovarian
SK-MEL-28 melanoma = test system: SK-MEL-28 melanoma
NCI/ADR-RES ovarian = test system: NCI/ADR-RES ovarian
M14 melanoma = test system: M14 melanoma
HL-60(TB) leukemia = test system: HL-60(TB) leukemia
SNB-75 CNS = test system: SNB-75 CNS
ACHN renal = test system: ACHN renal
NCI-H522 lung = test system: NCI-H522 lung
SF-539 CNS = test system: SF-539 CNS
COLO 205 colon = test system: COLO 205 colon
SN12C renal = test system: SN12C renal
UO-31 renal = test system: UO-31 renal
HOP-62 NSCLC = test system: HOP-62 NSCLC
BT-549 breast = test system: BT-549 breast
SW-620 colon = test system: SW-620 colon
K-562 leukemia = test system: K-562 leukemia
A498 renal = test system: A498 renal
OVCAR-8 ovarian = test system: OVCAR-8 ovarian
MDA-MB-435 = test system: MDA-MB-435
TK-10 renal = test system: TK-10 renal
DU-145 prostate = test system: DU-145 prostate

CCC1(N2C(=O)c3c(F)c(F)c(F)c(F)c3C2=O)C(=O)NC(=O)N(c2ccccc2)C1=O (stereo not drawn)
GI50 (RXF 393 renal): 2.75 µM | TGI (RXF 393 renal): 15.5 µM | GI50 (SNB-19 CNS): 3.93 µM | TGI (SNB-19 CNS): 16.9 µM | GI50 (HOP-92 NSCLC): 2.01 µM | TGI (HOP-92 NSCLC): 4.17 µM | GI50 (U251 CNS): 1.53 µM | TGI (U251 CNS): 3.07 µM | GI50 (NCI-H226 lung): 10.9 µM | TGI (NCI-H226 lung): 24.2 µM | GI50 (HT29 colon): 2.23 µM | TGI (HT29 colon): 4.89 µM | GI50 (KM12 colon): 2.58 µM | TGI (KM12 colon): 8.31 µM | GI50 (HS 578T breast): 4.14 µM | TGI (HS 578T breast): 30.1 µM | GI50 (CAKI-1 renal): 1.95 µM | TGI (CAKI-1 renal): 4 µM | GI50 (EKVX NSCLC): 2.77 µM | TGI (EKVX NSCLC): 8.01 µM | GI50 (SF-295 CNS): 2.57 µM | TGI (SF-295 CNS): 7.55 µM | GI50 (SK-OV-3 ovarian): 10.6 µM | TGI (SK-OV-3 ovarian): 31 µM | GI50 (HCT-116 colon): 4.1 µM | TGI (HCT-116 colon): 18.2 µM | GI50 (A549 NSCLC): 14 µM | TGI (A549 NSCLC): 28.6 µM | GI50 (HCT-15 colon): 2.32 µM | TGI (HCT-15 colon): 7.14 µM | GI50 (LOX IMVI melanoma): 1.18 µM | TGI (LOX IMVI melanoma): 2.73 µM | GI50 (NCI-H23 lung): 1.99 µM | TGI (NCI-H23 lung): 4.02 µM | GI50 (SF-268 CNS): 3.66 µM | TGI (SF-268 CNS): 16 µM | GI50 (UACC-257 melanoma): 5.06 µM | TGI (UACC-257 melanoma): 17.1 µM | GI50 (MCF7 breast): 2.21 µM | TGI (MCF7 breast): 17 µM | GI50 (UACC-62 melanoma): 1.41 µM | TGI (UACC-62 melanoma): 3.1 µM | GI50 (NCI-H460 lung): 3.22 µM | TGI (NCI-H460 lung): 11.5 µM | GI50 (PC-3 prostate): 2.28 µM | TGI (PC-3 prostate): 16 µM | GI50 (MOLT-4 leukemia): 2.64 µM | TGI (MOLT-4 leukemia): 6.35 µM | GI50 (CCRF-CEM leukemia): 1.31 µM | TGI (CCRF-CEM leukemia): 3.8 µM | GI50 (T-47D breast): 2.2 µM | TGI (T-47D breast): 4.72 µM | GI50 (RPMI-8226 leukemia): 0.331 µM | TGI (RPMI-8226 leukemia): 2.58 µM | GI50 (SK-MEL-2 melanoma): 3.84 µM | TGI (SK-MEL-2 melanoma): > 100 µM | GI50 (SR leukemia): 0.496 µM | TGI (SR leukemia): 4.32 µM | GI50 (OVCAR-4 ovarian): 1.74 µM | TGI (OVCAR-4 ovarian): 4.08 µM | GI50 (MDA-MB-231 breast): 1.7 µM | TGI (MDA-MB-231 breast): 4.03 µM | GI50 (786-0 renal): 3.34 µM | TGI (786-0 renal): 13.9 µM | GI50 (OVCAR-5 ovarian): 1.69 µM | TGI (OVCAR-5 ovarian): 3.43 µM | GI50 (OVCAR-3 ovarian): 1.67 µM | TGI (OVCAR-3 ovarian): 4.1 µM | GI50 (SK-MEL-28 melanoma): 2.79 µM | TGI (SK-MEL-28 melanoma): 10.6 µM | GI50 (NCI/ADR-RES ovarian): 7.69 µM | TGI (NCI/ADR-RES ovarian): 27.1 µM | GI50 (M14 melanoma): 4.46 µM | TGI (M14 melanoma): 19.4 µM | GI50 (HL-60(TB) leukemia): 2.67 µM | TGI (HL-60(TB) leukemia): 4.57 µM | GI50 (SNB-75 CNS): 1.9 µM | TGI (SNB-75 CNS): 5.09 µM | GI50 (ACHN renal): 4.02 µM | TGI (ACHN renal): 14.9 µM | GI50 (NCI-H522 lung): 3.13 µM | TGI (NCI-H522 lung): 26.2 µM | GI50 (SF-539 CNS): 2.24 µM | TGI (SF-539 CNS): 4.33 µM | GI50 (COLO 205 colon): 2.57 µM | TGI (COLO 205 colon): 6.78 µM | GI50 (SN12C renal): 1.57 µM | TGI (SN12C renal): 3.54 µM | GI50 (UO-31 renal): 17.1 µM | TGI (UO-31 renal): 63.7 µM | GI50 (HOP-62 NSCLC): 4.93 µM | TGI (HOP-62 NSCLC): 20.8 µM | GI50 (BT-549 breast): 2.1 µM | TGI (BT-549 breast): 4.76 µM | GI50 (SW-620 colon): 1.76 µM | TGI (SW-620 colon): 3.96 µM | GI50 (K-562 leukemia): 2.31 µM | TGI (K-562 leukemia): 5.23 µM | GI50 (A498 renal): 12.2 µM | TGI (A498 renal): 25.9 µM | GI50 (OVCAR-8 ovarian): 3.47 µM | TGI (OVCAR-8 ovarian): 11.4 µM | GI50 (MDA-MB-435): 2.89 µM | TGI (MDA-MB-435): 8.02 µM | GI50 (TK-10 renal): 2.4 µM | TGI (TK-10 renal): 5.57 µM | GI50 (DU-145 prostate): 4.87 µM | TGI (DU-145 prostate): 17.9 µM
